Experiments:
rat NPFF2 receptor = target: T1, rat NPFF2 receptor (Rattus norvegicus, UniProt Q9EQD2); test: Functional assay (agonist potency, intrinsic activity) at cloned rat NPFF2 receptor; type: cell-based; conditions: Table 7, intrinsic activity
T1 construct: The full-length NPFF2 was amplified from rat spinal cord cDNA; expressed in transfected cells; host or cells: not given

[1] = target: T2, human α1A adrenergic receptor (Homo sapiens, UniProt P35348); test: Binding at human α1A adrenergic receptor; conditions: Table 8; read-out: hα1A Ki
T2 construct: host or cells: LM(tk-) cells, line L-α1C
T2 sequence (P35348 1-466): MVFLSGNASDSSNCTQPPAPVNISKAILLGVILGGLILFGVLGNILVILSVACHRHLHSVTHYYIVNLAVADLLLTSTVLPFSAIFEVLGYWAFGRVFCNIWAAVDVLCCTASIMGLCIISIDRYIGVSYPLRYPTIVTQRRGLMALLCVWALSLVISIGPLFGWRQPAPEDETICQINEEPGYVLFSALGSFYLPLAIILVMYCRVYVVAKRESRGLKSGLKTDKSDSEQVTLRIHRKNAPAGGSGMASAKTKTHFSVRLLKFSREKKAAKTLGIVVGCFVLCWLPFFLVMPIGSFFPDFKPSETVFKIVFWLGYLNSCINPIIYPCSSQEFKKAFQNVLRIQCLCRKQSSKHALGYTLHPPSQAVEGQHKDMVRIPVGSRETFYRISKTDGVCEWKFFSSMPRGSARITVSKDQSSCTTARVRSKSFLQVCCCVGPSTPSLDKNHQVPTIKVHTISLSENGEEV
Excerpt: (§1) α1 Human Adrenergic Receptors: To determine the binding of compounds to human α1 receptors, LM(tk−) cell lines stably transfected with the genes encoding the α1a, α1b, and α1d receptors were used. The nomenclature describing the α1 receptors was changed recently, such that the receptor formerly designated α1a is now designated α1d, and the receptor formerly designated α1c is now designated α1a. The cell lines expressing these receptors were deposited with the ATCC before the nomenclature change and reflect the subtype designations formerly assigned to these receptors. Thus, the cell line expressing the receptor described herein as the α1a receptor was deposited with the ATCC on Sep. […] The cell line expressing receptor described herein as the α1d receptor was deposited with the ATCC on Sep. […] The cell line expressing the α1b receptor is designated L-α1B, and was deposited on Sep.
(§2) The binding affinity (Ki) of these compounds were tested according to the protocols described herein at the following receptors; human α1A, α1B, α1D, α2A, α2B, and α2C adrenergic receptors; human Y1, Y2, Y4, and Y5 receptors; and N-Methyl-D-aspartic acid (NMDA) receptor channels. The binding interactions of these compounds were additionally tested at the norepinephrine (NE) transporter (NE uptake) and serotonin (5-hydroxytryptamine (5HT)) transporter (5HT uptake) according to protocols described herein

[2] = target: T3, human α1B adrenergic receptor (Homo sapiens, UniProt P35368); test: Binding at human α1B adrenergic receptor; conditions: Table 8; read-out: hα1B Ki
T3 construct: host or cells: LM(tk-) cells, line L-α1B
T3 sequence (P35368 1-520): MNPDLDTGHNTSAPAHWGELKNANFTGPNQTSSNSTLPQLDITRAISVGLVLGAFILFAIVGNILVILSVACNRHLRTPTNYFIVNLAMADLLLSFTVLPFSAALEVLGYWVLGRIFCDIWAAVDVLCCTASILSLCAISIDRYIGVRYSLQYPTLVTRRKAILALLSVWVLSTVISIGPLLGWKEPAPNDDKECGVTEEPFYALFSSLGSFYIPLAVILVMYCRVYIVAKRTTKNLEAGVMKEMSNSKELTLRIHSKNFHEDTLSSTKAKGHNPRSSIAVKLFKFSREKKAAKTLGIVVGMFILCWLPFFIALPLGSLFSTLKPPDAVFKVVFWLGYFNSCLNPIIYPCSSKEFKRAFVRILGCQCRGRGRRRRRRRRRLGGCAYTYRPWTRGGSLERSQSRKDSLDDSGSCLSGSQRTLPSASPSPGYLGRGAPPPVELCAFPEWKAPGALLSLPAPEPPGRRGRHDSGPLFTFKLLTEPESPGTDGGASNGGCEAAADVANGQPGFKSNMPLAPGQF
Excerpt: as §1, §2

[3] = target: T4, human α1D adrenergic receptor (Homo sapiens, UniProt P25100); test: Binding at human α1D adrenergic receptor; conditions: Table 8; read-out: hα1D Ki
T4 construct: host or cells: LM(tk-) cells, line L-α1A
T4 sequence (P25100 1-572): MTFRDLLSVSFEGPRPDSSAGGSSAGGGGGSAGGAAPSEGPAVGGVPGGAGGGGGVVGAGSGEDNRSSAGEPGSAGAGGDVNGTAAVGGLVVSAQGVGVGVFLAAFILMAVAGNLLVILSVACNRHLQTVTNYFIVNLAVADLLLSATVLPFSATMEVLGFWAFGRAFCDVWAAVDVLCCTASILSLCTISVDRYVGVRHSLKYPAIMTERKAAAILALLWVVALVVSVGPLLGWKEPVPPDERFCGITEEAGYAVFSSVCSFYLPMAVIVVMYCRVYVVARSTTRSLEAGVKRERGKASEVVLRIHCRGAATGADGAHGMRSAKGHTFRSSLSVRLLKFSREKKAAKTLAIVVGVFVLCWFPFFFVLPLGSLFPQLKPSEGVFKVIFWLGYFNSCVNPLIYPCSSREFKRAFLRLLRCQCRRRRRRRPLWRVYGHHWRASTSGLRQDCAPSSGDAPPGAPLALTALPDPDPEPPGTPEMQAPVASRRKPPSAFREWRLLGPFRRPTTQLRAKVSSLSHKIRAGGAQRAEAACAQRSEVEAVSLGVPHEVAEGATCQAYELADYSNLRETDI
Excerpt: as §1, §2

[4] = target: T5, norepinephrine (NE) transporter (Rattus norvegicus, UniProt Q63380); test: Binding at native norepinephrine transporter (NE uptake); conditions: Table 8
T5 construct: evaluated at native, tissue-derived transporters; from tissue
Procedure: (§3) Transporters: The binding properties of compounds were evaluated at native, tissue-derived transporters, namely serotonin (5HT) transporter and norepinephrine (NE) transporter, according to protocols described in Owens (1997), the disclosure of which is hereby incorporated by reference in its entirety into this application.
as §2

[5] = target: T6, serotonin (5HT) transporter (Rattus norvegicus, UniProt P31652); test: Binding at native serotonin transporter (5HT uptake); conditions: Table 8
T6 construct: evaluated at native, tissue-derived transporters; from tissue
Procedure: as §3, §2

human Y1 receptor = target: T7, human Y1 receptor (Homo sapiens, UniProt P25929); test: Binding at human neuropeptide Y Y1 receptor; conditions: Table 8; read-out: hY1 Ki
T7 construct: host or cells: 293 cells, line 293-hY1-5
T7 sequence (P25929 1-384): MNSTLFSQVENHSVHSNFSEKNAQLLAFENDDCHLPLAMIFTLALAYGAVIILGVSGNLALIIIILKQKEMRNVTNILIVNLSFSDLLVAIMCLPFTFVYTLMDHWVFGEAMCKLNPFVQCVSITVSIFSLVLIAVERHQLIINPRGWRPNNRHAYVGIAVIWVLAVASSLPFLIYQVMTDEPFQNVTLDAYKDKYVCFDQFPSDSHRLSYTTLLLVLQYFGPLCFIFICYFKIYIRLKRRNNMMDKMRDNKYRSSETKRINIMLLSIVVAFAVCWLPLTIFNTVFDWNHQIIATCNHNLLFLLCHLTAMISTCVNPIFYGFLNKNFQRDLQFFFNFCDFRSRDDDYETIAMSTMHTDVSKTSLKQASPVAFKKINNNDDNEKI
Excerpt: (§4) Neuropeptide receptors: Stably transfected cell lines which may be used for binding experiments include, for the Y1 receptor, 293-hY1-5 (deposited Jun. 4, 1996, under ATCC Accession No. CRL-12121); for the Y2 receptor, 293-hY2-10 (deposited Jan. 27, 1994, under ATCC Accession No. CRL-11837); for the Y4 receptor, L-hY4-3 (deposited Jan. 11, 1995, under ATCC Accession No. CRL 11779); and for the Y5 receptor, L-hY5-7 (deposited Nov. 15, 1995, under ATCC Accession No. CRL 11995).
(§5) Binding assays using the NPY receptors may be carried out according to the procedures described in U.S. Pat. No. 5,602,024, the disclosure of which is hereby incorporated by reference in its entirety into this application.
as §2

human Y2 receptor = target: T8, human Y2 receptor (Homo sapiens, UniProt P49146); test: Binding at human neuropeptide Y Y2 receptor; conditions: Table 8; read-out: hY2 Ki
T8 construct: host or cells: 293 cells, line 293-hY2-10
T8 sequence (P49146 1-381): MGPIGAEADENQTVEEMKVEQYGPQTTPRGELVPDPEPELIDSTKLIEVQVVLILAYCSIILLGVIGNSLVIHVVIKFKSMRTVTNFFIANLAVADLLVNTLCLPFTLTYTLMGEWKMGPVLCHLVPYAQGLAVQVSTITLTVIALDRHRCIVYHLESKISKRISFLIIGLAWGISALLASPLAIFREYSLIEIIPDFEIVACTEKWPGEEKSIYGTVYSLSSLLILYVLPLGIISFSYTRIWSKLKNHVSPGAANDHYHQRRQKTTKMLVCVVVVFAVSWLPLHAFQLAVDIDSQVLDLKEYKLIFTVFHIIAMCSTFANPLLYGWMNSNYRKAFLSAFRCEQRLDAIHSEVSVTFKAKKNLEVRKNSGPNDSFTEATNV
Excerpt: as §4, §5, §2

human Y4 receptor = target: T9, human Y4 receptor (Homo sapiens, UniProt P50391); test: Binding at human neuropeptide Y Y4 receptor; conditions: Table 8; read-out: hY4 Ki
T9 construct: host or cells: L cells, line L-hY4-3
Excerpt: as §4, §5, §2

human Y5 receptor = target: T10, human Y5 receptor (Homo sapiens, UniProt Q15761); test: Binding at human neuropeptide Y Y5 receptor; conditions: Table 8; read-out: hY5 Ki
T10 construct: host or cells: L cells, line L-hY5-7
T10 sequence (Q15761 1-445): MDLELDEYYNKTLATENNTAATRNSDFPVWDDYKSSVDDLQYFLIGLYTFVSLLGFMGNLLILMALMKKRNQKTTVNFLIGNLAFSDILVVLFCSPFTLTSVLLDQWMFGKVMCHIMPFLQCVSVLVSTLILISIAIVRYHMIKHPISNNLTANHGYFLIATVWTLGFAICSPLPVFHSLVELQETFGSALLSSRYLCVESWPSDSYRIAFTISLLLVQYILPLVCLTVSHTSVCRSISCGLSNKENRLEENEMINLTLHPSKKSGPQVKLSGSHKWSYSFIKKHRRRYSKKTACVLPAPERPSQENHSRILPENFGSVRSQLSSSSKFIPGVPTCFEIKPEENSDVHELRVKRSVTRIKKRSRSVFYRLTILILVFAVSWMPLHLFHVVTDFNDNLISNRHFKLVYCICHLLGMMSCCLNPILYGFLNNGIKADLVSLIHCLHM
Excerpt: as §4, §5, §2

T5 sequence (Q63380 1-617): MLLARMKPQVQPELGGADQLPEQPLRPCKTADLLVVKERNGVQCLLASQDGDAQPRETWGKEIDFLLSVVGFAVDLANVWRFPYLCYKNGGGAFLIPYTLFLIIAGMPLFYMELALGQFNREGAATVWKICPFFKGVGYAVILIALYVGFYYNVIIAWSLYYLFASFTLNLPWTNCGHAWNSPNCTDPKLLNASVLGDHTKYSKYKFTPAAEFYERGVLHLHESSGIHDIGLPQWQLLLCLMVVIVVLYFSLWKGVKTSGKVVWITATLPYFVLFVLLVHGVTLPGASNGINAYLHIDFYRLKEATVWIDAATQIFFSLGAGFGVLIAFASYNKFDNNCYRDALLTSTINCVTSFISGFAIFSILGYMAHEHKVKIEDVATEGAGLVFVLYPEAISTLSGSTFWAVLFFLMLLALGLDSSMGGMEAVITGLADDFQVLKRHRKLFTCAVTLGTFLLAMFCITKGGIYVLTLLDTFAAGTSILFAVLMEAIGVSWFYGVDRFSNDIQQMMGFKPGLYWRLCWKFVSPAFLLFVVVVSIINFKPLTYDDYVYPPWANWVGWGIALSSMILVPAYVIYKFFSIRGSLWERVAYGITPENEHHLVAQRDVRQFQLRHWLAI
T1 sequence (Q9EQD2 whole entry): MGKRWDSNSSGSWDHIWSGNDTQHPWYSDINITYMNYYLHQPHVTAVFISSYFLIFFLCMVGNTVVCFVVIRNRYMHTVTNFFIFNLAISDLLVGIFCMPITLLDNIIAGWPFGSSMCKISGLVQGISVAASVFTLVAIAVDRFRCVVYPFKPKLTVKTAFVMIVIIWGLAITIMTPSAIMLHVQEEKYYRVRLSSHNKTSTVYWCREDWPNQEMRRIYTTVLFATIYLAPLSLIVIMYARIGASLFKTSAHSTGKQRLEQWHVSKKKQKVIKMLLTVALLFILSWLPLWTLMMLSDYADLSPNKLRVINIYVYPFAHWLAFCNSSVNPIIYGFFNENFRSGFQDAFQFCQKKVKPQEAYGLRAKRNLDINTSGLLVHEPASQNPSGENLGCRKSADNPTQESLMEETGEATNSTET
T6 sequence (P31652 whole entry): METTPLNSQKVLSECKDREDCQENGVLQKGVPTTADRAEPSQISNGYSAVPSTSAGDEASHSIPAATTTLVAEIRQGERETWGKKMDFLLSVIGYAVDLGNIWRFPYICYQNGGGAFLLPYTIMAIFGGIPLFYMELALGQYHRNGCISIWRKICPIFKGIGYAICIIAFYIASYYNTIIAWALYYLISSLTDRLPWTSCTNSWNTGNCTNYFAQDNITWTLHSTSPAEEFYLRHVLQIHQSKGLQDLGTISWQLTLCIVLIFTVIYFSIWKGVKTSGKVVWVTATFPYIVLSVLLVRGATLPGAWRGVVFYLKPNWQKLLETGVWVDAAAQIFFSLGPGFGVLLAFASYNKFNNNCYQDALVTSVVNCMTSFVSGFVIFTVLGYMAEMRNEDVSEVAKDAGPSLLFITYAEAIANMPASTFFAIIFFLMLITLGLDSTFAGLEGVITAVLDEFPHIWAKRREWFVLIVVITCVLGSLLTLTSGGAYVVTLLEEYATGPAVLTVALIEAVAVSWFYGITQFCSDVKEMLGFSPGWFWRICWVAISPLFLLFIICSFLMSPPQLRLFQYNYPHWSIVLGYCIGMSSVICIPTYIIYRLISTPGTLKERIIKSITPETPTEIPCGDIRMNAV
T9 sequence (P50391 whole entry): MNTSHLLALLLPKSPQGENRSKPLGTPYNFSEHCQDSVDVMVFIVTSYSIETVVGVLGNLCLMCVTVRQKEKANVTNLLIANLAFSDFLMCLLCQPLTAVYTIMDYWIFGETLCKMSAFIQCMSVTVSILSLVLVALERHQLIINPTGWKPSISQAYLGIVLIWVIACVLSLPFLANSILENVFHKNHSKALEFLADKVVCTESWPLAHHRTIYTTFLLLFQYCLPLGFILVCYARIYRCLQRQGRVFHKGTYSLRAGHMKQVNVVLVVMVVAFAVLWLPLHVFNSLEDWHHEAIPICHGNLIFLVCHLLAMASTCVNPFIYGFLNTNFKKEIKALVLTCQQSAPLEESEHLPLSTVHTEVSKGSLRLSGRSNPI

Row | rNPFF2 IA (rat NPFF2 receptor) [% NPFF] | Ki [1] [µM] | Ki [2] [µM] | Ki [3] [µM] | SMILES | Ki [4] [µM] | Ki [5] [µM] | Ki (human Y1 receptor) [µM] | Ki (human Y2 receptor) [µM] | Ki (human Y4 receptor) [µM] | Ki (human Y5 receptor) [µM]
1 | 16 | 5.03 | 9.86 | 12.9 | Cc1nc(NC(=N)N)nc2ccccc12 [Compound 1001A, N-(4-methyl-2-quinazolinyl)guanidine] | – | – | – | – | – | –
2 | – | – | – | – | Cc1cc(NC(=N)N)nc2ccccc12 [Compound 6001A, N-(4-methyl-2-quinolinyl)guanidine] | 12.7 | 10.5 | > 50 | > 50 | 14.3 | 0.742

— patent publication US20030176314A1, “Compounds for the treatment of pain” (priority 2001, published 2003)
